Article PMC6001580, “Synthesis and molecular modelling studies of pyrimidinones and pyrrolo[3,4-d]-pyrimidinodiones as new antiplasmodial compounds” (Memórias do Instituto Oswaldo Cruz, 2018)
Several values for one entry are separate records, joined by “and”; a condition that tells them apart may be missing. Equal values may be shown once. Read-outs that look alike come from different tables or passages of the source.

Assays:
Hemolysis assay = format: cell-based; conditions: erythrocyte suspension (1% haematocrit), at 1000 μM, 37 °C, read-out: haemolysis
Method: Hemolysis assay - The haemolysis assay was performed according to the protocol described by [Wang et al. (2010)]. The compounds were dissolved in DMSO (0.5% v/v). Suspensions of erythrocytes (1% haematocrit) were incubated with the compounds at serial dilutions ranging from 15 to 1000 µM, at 37 °C for 30 min with a constant stirring. A 0.05% solution of saponin (Sigma-Aldrich) was used as a positive control of the test as it generated 100% haemolysis, and the suspension of erythrocytes in the medium was used as a negative control (blank). Following incubation, suspensions were centrifuged at 1000 g for 10 min, and the absorbance of the supernatants was measured at 540 nm using an Espectramax 190 spectrophotometer. The haemolysis rate of the samples was calculated as follows: % haemolysis = (sample absorbance - blank absorbance) x 100 / absorbance of the control with saponin.

[1] = system: P. berghei ANKA expressing green fluorescent protein (PbA-GFP); assay: In vivo activity evaluation against P. berghei (four-day test in mice); set-up: species or system Plasmodium berghei; conditions: Swiss mice, 30 mg/Kg orally for four consecutive days, vs untreated controls; for Reduction (%) of parasitaemia, Day eight: day eight after infection; for Reduction (%) of parasitaemia, Day five: day five after infection
Excerpt: In vivo activity evaluation against P. berghei - Swiss mice (Institute of Science and Technology in Biomodels - Fiocruz) were inoculated with 10^5 erythrocytes infected with P. berghei ANKA expressing green fluorescent protein (PbA-GFP, a donation from the malaria research and reference reagent resource centre -MR4, Manassas, VA; deposited by CJ Janse and AP Waters; MR4 number: MRA-865) intraperitoneally (day 1 of the experiment). Three hours after inoculation, the animals were randomly divided into five groups of mice. […] All of the test compounds and chloroquine were administered at a dose of 30 mg/kg, orally by gavage for four consecutive days. On days 5 and 8 after infection, flow cytometry was used to detect and count the number of parasitised red blood cells (RBC) that expressed GFP in relation to 10,000 RBCs, thus assessing the evolution of parasitaemia. […] The antimalarial activity was determined by the percentage reduction in parasitaemia of treated animals compared to untreated controls ([Peters et al. 1975]).

BGM cells = assay: Cytotoxicity evaluation on mammalian cells (MTT); format: cell-based; conditions: 24 h, mean of three experiments
Method: Cytotoxicity evaluation on mammalian cells - BGM cells (originally acquired from ATCC (American Type Culture Collection), Manassas, VA, USA by the Federal University of Minas Gerais, Brazil, and donated by Dr Antoniana Krettli - Federal University of Minas Gerais) were cultured in 75 cm^2 sterile ﬂasks containing RPMI 1640 medium supplemented with 10% foetal bovine serum (FBS) at a concentration of 5 x 10^3 cells per millilitre in a 5% CO2 atmosphere at 37 °C. Cells were added with the test compounds in serial dilution. When the cell monolayer was confluent, it was trypsinised, washed with a culture medium distributed in a flat-bottomed 96-well plate (1 × 10^5 cells/mL) and incubated for 24 h at 37 °C to ensure cell adherence. Then, the drugs were added in serial dilution (1000-15 µM) and incubated for 24 h at 37 °C. Subsequently, the MTT salt, in a concentration of 3 mg/mL, was added after 3 h; then, the supernatant was removed, and the dye present on the bottom of the plate wells was dissolved in DMSO in a volume of 100 µL/well DMSO. The microplates were then read in an Espectramax 190 (Molecular Devices, USA) spectrophotometer, using the 570 nm filter. The determination of MDL50 was performed using a dose response curves nonlinear regression function ([Denizot and Lang 1986]).

[2] = system: chloroquine-resistant Plasmodium falciparum W2 strain; assay: Antiplasmodial in vitro assay (HRPII sandwich ELISA, 72 h); format: cell-based; conditions: for IC50: Plasmodium falciparum, W2, 72 h; for SI (selectivity index): SI = MDL50 / IC50 (BGM cells vs P. falciparum W2)
Excerpt: Antiplasmodial in vitro assay - The cultivation of P. falciparum W2 strain (originating from Indochina and cultivated in the Malaria Research Laboratory, Oswaldo Cruz Foundation-Fiocruz), which is chloroquine-resistant, was made according to the protocol of [Trager and Jensen (1976)], using human erythrocytes (A^+) in an RPMI 1640 medium supplemented with human serum. Parasites were synchronised to obtain the young (ring) parasite forms ([Lambros and Vanderberg 1979]). Parasitaemia was adjusted to 0.05% and haematocrit to 1.5%. Subsequently, the cultures were placed in microplates with the drugs, previously diluted in dimethyl sulphoxide and medium (DMSO 0.02% v/v), to be tested in serial dilutions (50 - 0.78 µM), as well as positive controls (chloroquine in serial dilutions; 10 - 0.07 µM) and negative (no drug) controls. All the microplates were incubated for 72 h. The microplates were then subjected to three cycles of freezing and thawing; the parasite growth was measured through the quantification of histidine-rich protein II (HRPII) using specific monoclonal antibodies (MPFM ICLLAB-55A®, USA and MPFG55P ICLLAB®, USA) in sandwich ELISA ([Noedl et al. 2002]). Absorbance was read at 450 nm in an Espectramax 190 spectrophotometer (Molecular Devices, USA), and the determination of the IC50 was made using dose-response curves.

[3] = P. falciparum W2 strain, 72 h, HRPII ELISA, mean of three experiments, read-out: IC50

| SMILES | hemolysis at 30 min, 1000 µM (Hemolysis assay) | Reduction (%) of parasitaemia, Day eight [1] | Reduction (%) of parasitaemia, Day five [1] | MDL50 (BGM cells) | IC50 [2, 3] | SI (selectivity index) [2] | IC50 [2] |
| --- | --- | --- | --- | --- | --- | --- | --- |
| CCOC(=O)C1=C(CCl)NC(=O)NC1c1ccc(Br)cc1 (centres unmarked) [1f] | 0.95% | 60.9% | 9.1% | 22 µM and 22 ± 0.56 µM | 1.76 ± 0.27 µM | 12.5 | – |
| COc1ccc(C2NC(=O)NC3=C2C(=O)N(Cc2ccccc2)C3)c(OC)c1 (centres unmarked) [3i] | – | – | – | > 100 µM | > 50 µM | – | – |
| COc1ccc(C2NC(=O)NC3=C2C(=O)N(Cc2ccccc2)C3)cc1 (centres unmarked) [3b] | – | – | – | > 100 µM | > 50 µM | – | – |
| COc1ccccc1C1NC(=O)NC2=C1C(=O)N(CCc1ccccc1)C2 (centres unmarked) [2e] | – | – | – | 56 ± 1.83 µM | 22 ± 0.08 µM | 2.5 | – |
| O=C1NC2=C(C(=O)N(CCc3ccccc3)C2)C(c2ccccc2)N1 (centres unmarked) [2a] | – | – | – | > 100 µM | > 50 µM | – | – |
| O=C1NC2=C(C(=O)N(CCc3ccccc3)C2)C(c2ccccc2Cl)N1 (centres unmarked) [2h] | – | – | – | > 100 µM | > 50 µM | – | – |
| CCOC(=O)C1=C(CCl)NC(=O)NC1c1ccc([N+](=O)[O-])cc1 (centres unmarked) [1j] | – | – | – | 26.2 ± 1.1 µM | 6 ± 0.8 µM | 4.4 | – |
| O=C1NC2=C(C(=O)N(CCc3ccccc3)C2)C(c2cccc(Br)c2)N1 (centres unmarked) [2c] | 12.3% | – | – | 6.9 ± 0.97 µM | > 50 µM | – | – |
| CCOC(=O)C1=C(CCl)NC(=O)NC1c1cccc(Br)c1 (centres unmarked) [1c] | – | – | – | 21.7 ± 1.24 µM | 6.17 ± 0.02 µM | 3.5 | – |
| O=C1NC2=C(C(=O)N(Cc3ccccc3)C2)C(c2ccccc2Cl)N1 (centres unmarked) [3h] | – | – | – | > 100 µM | 26.7 ± 0.56 µM | > 3.8 | – |
| CCOC(=O)C1=C(CCl)NC(=O)NC1c1ccc(Cl)cc1 (centres unmarked) [1d] | 3.6% | – | – | 2.5 ± 0.93 µM | 1.96 ± 0.21 µM | 1.3 | – |
| CCOC(=O)C1=C(CCl)NC(=O)NC1c1ccccc1 (centres unmarked) [1a] | – | – | – | 24.6 ± 0.03 µM | 6.38 ± 0.8 µM | 3.9 | – |
| CCOC(=O)C1=C(CCl)NC(=O)NC1c1ccc(OC)cc1OC (centres unmarked) [1i] | – | – | – | 9.7 ± 0.46 µM | 2.98 ± 0.18 µM | 3.3 | – |
| COc1cc(C2NC(=O)NC3=C2C(=O)N(Cc2ccccc2)C3)cc(OC)c1OC (centres unmarked) [3g] | – | – | – | > 100 µM | > 50 µM | – | – |
| COc1ccccc1C1NC(=O)NC2=C1C(=O)N(Cc1ccccc1)C2 (centres unmarked) [3e] | – | – | – | > 100 µM | > 50 µM | – | – |
| CCOC(=O)C1=C(CCl)NC(=O)NC1c1ccccc1Cl (centres unmarked) [1h] | – | 55.2% | 0% | 77 µM and 77 ± 0.87 µM | 3.12 ± 0.06 µM | 24.6 | – |

| SMILES | hemolysis at 30 min, 1000 µM (Hemolysis assay) | Reduction (%) of parasitaemia, Day eight [1] | Reduction (%) of parasitaemia, Day five [1] | MDL50 (BGM cells) | IC50 [2, 3] | SI (selectivity index) [2] | IC50 [2] |
| --- | --- | --- | --- | --- | --- | --- | --- |
| CCOC(=O)C1=C(CCl)NC(=O)NC1c1ccc(OC)c(OC)c1 (centres unmarked) [1k] | – | – | – | 24.5 ± 0.09 µM | 3 ± 0.25 µM | 8.2 | – |
| CCOC(=O)C1=C(CCl)NC(=O)NC1c1cc(OC)c(OC)c(OC)c1 (centres unmarked) [1g] | – | – | – | 21.7 ± 1.15 µM | 24.1 ± 1.2 µM | 0.9 | – |
| COc1cc(C2NC(=O)NC3=C2C(=O)N(CCc2ccccc2)C3)cc(OC)c1OC (centres unmarked) [2g] | – | – | – | 6.2 ± 0.73 µM | > 50 µM | < 0.1 | – |
| COc1ccc(C2NC(=O)NC3=C2C(=O)N(Cc2ccccc2)C3)cc1OC (centres unmarked) [3k] | – | – | – | > 100 µM | > 50 µM | – | – |
| O=C1NC2=C(C(=O)N(CCc3ccccc3)C2)C(c2ccc([N+](=O)[O-])cc2)N1 (centres unmarked) [2j] | – | – | – | 8.9 ± 0.9 µM | 25.6 ± 0.09 µM | 0.4 | – |
| CCOC(=O)C1=C(CCl)NC(=O)NC1c1ccccc1OC (centres unmarked) [1e] | – | – | – | 23.8 ± 0.6 µM | – | 1.95 | – |
| O=C1NC2=C(C(=O)N(CCc3ccccc3)C2)C(c2ccc(Br)cc2)N1 (centres unmarked) [2f] | 22.6% | – | – | 18.6 ± 1.21 µM | > 50 µM | – | – |
| CCN(CC)CCCC(C)Nc1ccnc2cc(Cl)ccc12 (centres unmarked) [Chloroquine, reference compound] | – | 100% | 97.2% | – | – | – | 0.55 ± 0.09 µM |
| COc1ccc(C2NC(=O)NC3=C2C(=O)N(CCc2ccccc2)C3)cc1 (centres unmarked) [2b] | 21.7% | – | – | 24.6 ± 1.23 µM | 26.4 ± 0.26 µM | 0.93 | – |
| O=C1NC2=C(C(=O)N(Cc3ccccc3)C2)C(c2ccc(Cl)cc2)N1 (centres unmarked) [3d] | – | – | – | 86 ± 1.27 µM | 45 ± 0.79 µM | 1.9 | – |
| O=C1NC2=C(C(=O)N(Cc3ccccc3)C2)C(c2ccc(Br)cc2)N1 (centres unmarked) [3f] | – | – | – | > 100 µM | 26 ± 1.15 µM | > 3.8 | – |
| CCOC(=O)C1=C(CCl)NC(=O)NC1c1ccc(OC)cc1 (centres unmarked) [1b] | – | 33.8% | 0% | 57 µM and 57 ± 0.65 µM | – | 19 | – |
| O=C1NC2=C(C(=O)N(Cc3ccccc3)C2)C(c2ccc([N+](=O)[O-])cc2)N1 (centres unmarked) [3j] | – | – | – | > 100 µM | > 50 µM | – | – |
| O=C1NC2=C(C(=O)N(Cc3ccccc3)C2)C(c2ccccc2)N1 (centres unmarked) [3a] | – | – | – | > 100 µM | > 50 µM | – | – |
| CCOC(=O)C1=C(CCl)NC(=O)NC1c1ccc(O)c(OC)c1 (centres unmarked) [1l] | – | – | – | – | 3 µM | – | – |
